Data from patent US20260315552A1, “COMBINATION OF VITAMINS, 2'-FUCOSYLLACTOSE AND A PROBIOTIC FOR ENHANCING BONE GROWTH AND/OR BONE STRENGTH” (SOCIÉTÉ DES PRODUITS NESTLÉ S.A., priority 2023, published 2026).

What was measured:
[1] = tested on: osteocalcin (Ocn) in pre-osteoblastic cell line MC3T3-E1 subclone 4; assay: Osteocalcin mRNA levels (qPCR); assay type: cell-based; conditions: 21 days of differentiation, without ascorbic acid; MK-7 3 μM, VitA 100 nM, VitD 1 nM; FIG. 1B
Description: (§1) (A) ALP activity after 7 days of differentiation (without ascorbic acid). (B) Osteocalcin mRNA levels after 21 days of differentiation (without ascorbic acid). (C) Osteocalcin mRNA levels after 28 days of differentiation (with ascorbic acid). Pos=positive control; Neg=negative control; MK-7=supplemented with 3 μM menaquinone-7; VitD=supplemented with 1 nM 1α,25-Dihydroxyvitamin D3; VitA=supplemented with 100 nM all-trans-retinoic acid.
The pre-osteoblastic cell line MC3T3-E1 subclone 4 (CRL-2593) was purchased from ATCC (Manassas; Virginia, USA). Cells were maintained in growth medium (GM) composed of ascorbic acid-free αMEM (ThermoFisher Scientific), supplemented with 10% fetal calf serum (FCS, ThermoFisher Scientific) and 1% penicillin/streptomycin. All culture media were refreshed every 2-3 days. Cells were passaged with trypsin/EDTA solution at less than 80% confluence. To induce differentiation into osteoblasts, cells were seeded at 5×10^4 cells/cm^2 and grown to confluency in GM for 24 h. Then, the medium was switched to differentiation medium (DM) composed of GM supplemented with 10 mM β-glycerophosphate and treatment solutions of interest. Ascorbic acid 50 μg/ml was also added to the DM depending on the experiment.
MC3T3-E1 subclone 4 cells were differentiated for 21 days (in DM without ascorbic acid except for the positive control) or 28 days (in DM containing ascorbic acid). Cells were then collected for gene expression analysis. RNA was extracted using the RNeasy plus mini kit (Qiagen; Hilden, Germany) with the QIAcube (Qiagen,) according to the manufacturer's instructions. Briefly, cells were lysed in RLT buffer and spun in a QIAshredder column (Qiagen) before being processed by the QIAcube. RNA concentrations were measured using the DropSense96 (TRINEAN, Gentbrugge, Belgium).
cDNAs were synthetized using High-Capacity cDNA Reverse Transcription Kit (AppliedBiosystems; Waltham, Massachusetts, USA) according to the manufacturer's instructions. […] The relative gene expression was evaluated via the 2^-ΔCt method.

[2] = tested on: pre-osteoblastic cell line MC3T3-E1 subclone 4; assay: Osteoblast alkaline phosphatase (ALP) activity; assay type: cell-based; conditions: 7 days of differentiation, without ascorbic acid; MK-7 3 μM, VitA 100 nM all-trans-retinoic acid, VitD 1 nM 1α,25-Dihydroxyvitamin D3; FIG. 1A
Description: as §1
ALP activity after 7 days of differentiation (without ascorbic acid). […]
The effect of SCFAs was further investigated. Three mixes of 75% acetate, 20% propionate, 5% butyrate were evaluated to mimic normal physiological conditions (20 μM SCFAs), physiological conditions following prebiotic supplementation (50 μM SCFAs), and physiological conditions following synbiotic supplementation (60 μM SCFAs). […]
After 7 days of differentiation, cells were then collected for alkaline phosphatase (ALP) activity measurement as described previously with minor modifications. […] Enzymatic reaction was monitored at 405 nm after 4-Nitrophenyl phosphate disodium salt hexahydrate addition. Michaelis-Menten kinetics were evaluated at 30° C. for 30 min. […] The activity value was normalized by protein content measured via the Pierce BCA Protein Assay Kit (ThermoFisher Scientific) according to the manufacturer's instructions.

Structure (SMILES) | effect on osteocalcin expression [1] | effect on ALP activity (marker of osteoblast differentiation) [2]
CC1=C(/C=C/C(C)=C/C=C/C(C)=C/C(=O)O)C(C)(C)CCC1 [vitamin A, all-trans-retinoic acid] | no significant effect | 
C=C1/C(=C\C=C2/CCC[C@]3(C)[C@@H]([C@H](C)CCCC(C)(C)O)CC[C@@H]23)C[C@@H](O)C[C@@H]1O [vitamin D, 1α,25-Dihydroxyvitamin D3] | no significant effect | 
CC(C)=CCC/C(C)=C/CC/C(C)=C/CC/C(C)=C/CC/C(C)=C/CC/C(C)=C/CC/C(C)=C/CC1=C(C)C(=O)c2ccccc2C1=O [vitamin K2, menaquinone-7] | significant effect | no significant effect
